The text below walks through data of US20210315474A1, “DECOUPLED COIL ASSEMBLIES, MAGNETIC RESONANCE SYSTEMS AND METHODS OF USE” (FluoID Inc, priority 2018, published 2021).

Molecules are shown by their SMILES.

This series in a line: 19F magnetic resonance imaging in vivo: tracking isoflurane in rat brain. The settings on record: live Sprague-Dawley rat.

Text: A MR system is utilized for this representative imaging experiment.
Here, indirect inverse irradiation focused on 19F is utilized to provide rapid and specific identification of the target molecule of interest while observing 1H, while circulating in a subject organism.
A live Sprague-Dawley rat was secured in the bed of the representative holding assembly of Example 1B. The RF coil elements were situated such that the area around its head was encircled to provide complete coverage for the brain of the animal, then the assembly placed in the MRI system of Example 1C. Localization of the spin species of interest, 19F, was accomplished with a spin-echo (or, alternatively, gradient-echo) sequence preceded with a magnetization transfer (MT) pulse allowing magnetization from 19F to 1H. The rat was subjected to increasing stepwise amounts of isoflurane, an inhaled general anesthetic with chemical structure CF3-CHCl—O—CHF2, over 30 minutes (see Table 2), then the flow was halted.
Anatomical MR images were obtained also using a standard spin-echo (or alternatively, gradient-echo) sequence. The MT pulse duration and strength were maintained constant prior to the signal acquisition by the surface coil.

As for `FC(F)OC(Cl)C(F)(F)F` (centres unmarked) [isoflurane], for the setting “inhaled isoflurane increased stepwise 1%-3% over 30 minutes, MT pulse 19F to 1H, FIG. 17”, the “19F signal seen in the brain (level of the drug reaching the CNS in real time)” value is reported as “increasing amount of 19F signal seen in the brain”. Moreover, for the setting “over the 30 minutes following cessation of anesthetic delivery (not shown)”, the “concentration of isoflurane in the brain after cessation of anesthetic delivery” value was “disappearance of the concentration of isoflurane in the brain could be observed”.
